Data taken from ChEMBL document CHEMBL4725392, “Orally Bioavailable Small-Molecule CD73 Inhibitor (OP-5244) Reverses Immunosuppression through Blockade of Adenosine Production” (J Med Chem, 2020).
Active and inactive are the calls of the source. The rule behind the calls is not given here.

Key:
Cytochrome P450 2C9 = Cytochrome P450 2C9 (Homo sapiens, UniProt P11712); experiment: Inhibition of CYP2C9 (unknown origin); format: ADME
[1] = Terminal half life in cynomolgus monkey at 0.2 mg/kg, iv; format: ADME, organism-based, Macaca fascicularis; settings: in vivo, read-out: beta t1/2 (converted)
[2] = Clearance in rat at 0.2 mg/kg, iv; format: ADME, organism-based; settings: in vivo
Cytochrome P450 2C8 = target: T1, Cytochrome P450 2C8 (Homo sapiens, UniProt P10632); experiment: Inhibition of CYP2C8 (unknown origin); format: ADME
T1 sequence (P10632 whole entry): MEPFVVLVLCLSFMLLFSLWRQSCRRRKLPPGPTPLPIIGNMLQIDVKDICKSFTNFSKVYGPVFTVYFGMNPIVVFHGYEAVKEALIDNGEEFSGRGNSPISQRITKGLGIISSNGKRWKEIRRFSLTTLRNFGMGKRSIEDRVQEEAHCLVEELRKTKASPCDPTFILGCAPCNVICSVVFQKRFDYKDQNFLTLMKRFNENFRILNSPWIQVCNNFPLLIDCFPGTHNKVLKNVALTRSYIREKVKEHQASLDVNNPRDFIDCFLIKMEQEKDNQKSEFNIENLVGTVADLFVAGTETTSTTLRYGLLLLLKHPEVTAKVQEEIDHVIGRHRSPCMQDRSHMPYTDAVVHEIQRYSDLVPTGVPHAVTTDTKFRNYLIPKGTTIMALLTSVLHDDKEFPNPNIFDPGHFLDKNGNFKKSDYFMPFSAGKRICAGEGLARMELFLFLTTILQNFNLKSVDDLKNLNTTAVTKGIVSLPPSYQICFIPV

[3] = Cmax in dog at 10 mg/kg, po; format: ADME, organism-based, Canis lupus familiaris; parameters: route oral, dose 10 mg/kg; settings: in vivo
[4] = AUC in rat at 0.2 mg/kg, iv; format: ADME, organism-based; parameters: dose 0.2 mg/kg; settings: in vivo
[5] = Terminal half life in mouse at 200 mg/kg, po; format: ADME, organism-based; settings: in vivo, read-out: beta t1/2 (converted)
[6] = Clearance in cynomolgus monkey at 0.2 mg/kg, iv; format: ADME, organism-based, Macaca fascicularis; settings: in vivo
EMT6 [7] = experiment: Antitumor activity against mouse EMT6 cells implanted in BALB/c mouse assessed as decrease in ADO expression at 15 mg/kg, sc and measured on day 13 relative to control; format: functional; parameters: scale not given: the % may be the effect or the level left; settings: time 13 day
5'-nucleotidase [8] = target: T2, 5'-nucleotidase (Homo sapiens, UniProt P21589); experiment: Inhibition of CD73 in human CD8+ T-cells assessed as reduction in AMP-induced ADO expression preincubated for 15 mins followed by AMP addition and measured after 1 hr by LC-MS/MS analysis relative to control; format: tissue-based; settings: CD8-positive T cell
T2 sequence (P21589 whole entry): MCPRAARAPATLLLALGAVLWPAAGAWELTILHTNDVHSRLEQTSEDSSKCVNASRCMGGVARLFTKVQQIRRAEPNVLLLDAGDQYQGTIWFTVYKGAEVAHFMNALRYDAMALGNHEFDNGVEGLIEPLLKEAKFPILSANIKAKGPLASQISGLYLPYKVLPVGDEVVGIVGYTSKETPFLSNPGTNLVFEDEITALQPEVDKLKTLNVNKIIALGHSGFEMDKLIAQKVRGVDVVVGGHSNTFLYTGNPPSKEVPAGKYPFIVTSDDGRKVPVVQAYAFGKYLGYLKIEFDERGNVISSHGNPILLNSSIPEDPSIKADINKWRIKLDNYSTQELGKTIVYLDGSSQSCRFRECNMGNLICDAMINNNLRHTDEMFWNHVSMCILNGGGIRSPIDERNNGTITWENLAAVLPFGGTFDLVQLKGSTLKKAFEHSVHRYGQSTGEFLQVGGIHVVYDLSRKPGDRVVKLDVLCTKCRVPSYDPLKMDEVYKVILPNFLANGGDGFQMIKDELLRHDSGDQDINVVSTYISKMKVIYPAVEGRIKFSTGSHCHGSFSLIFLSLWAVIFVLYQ

5'-nucleotidase [9] = target: T2, 5'-nucleotidase; experiment: Inhibition of CD73 in CD3/CD28/CD2 activated human CD8+ T-cells assessed as increase in IFNgamma protein expression at 4.1 to 1000 nM preincubated for 15 mins followed by AMP addition and measured after 96 hr by ELISA; format: tissue-based; settings: CD8-positive T cell, dose nM 4.1-1000, time 15.0 min
[10] = AUC in cynomolgus monkey at 10 mg/kg, po; format: ADME, organism-based, Macaca fascicularis; parameters: dose 10 mg/kg; settings: in vivo
Cytochrome P450 3A4 = Cytochrome P450 3A4 (Homo sapiens, UniProt P08684); experiment: Inhibition of CYP3A4 (unknown origin); format: ADME
Sequence of Cytochrome P450 3A4 (P08684 whole entry): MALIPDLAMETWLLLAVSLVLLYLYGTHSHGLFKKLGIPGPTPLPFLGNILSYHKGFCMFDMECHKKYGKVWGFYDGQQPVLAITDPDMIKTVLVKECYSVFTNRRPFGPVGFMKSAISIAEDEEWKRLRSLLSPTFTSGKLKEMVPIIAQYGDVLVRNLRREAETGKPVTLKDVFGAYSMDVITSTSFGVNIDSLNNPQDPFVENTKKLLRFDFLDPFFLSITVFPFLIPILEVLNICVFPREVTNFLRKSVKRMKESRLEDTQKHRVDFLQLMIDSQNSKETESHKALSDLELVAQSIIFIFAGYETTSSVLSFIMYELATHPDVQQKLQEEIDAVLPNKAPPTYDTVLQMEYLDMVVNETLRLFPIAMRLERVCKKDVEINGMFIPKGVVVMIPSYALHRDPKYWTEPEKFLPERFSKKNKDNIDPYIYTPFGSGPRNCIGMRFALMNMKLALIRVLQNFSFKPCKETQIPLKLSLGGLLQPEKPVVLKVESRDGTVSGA

[11] = Volume of distribution at steady state in rat at 0.2 mg/kg, iv; format: ADME, organism-based; settings: in vivo, read-out: Vdss
5'-nucleotidase [12] = target: T2, 5'-nucleotidase; experiment: Inhibition of CD73 in human NCI-H1568 cells assessed as reduction in AMP-induced ADO expression preincubated for 15 mins followed by AMP addition and measured after 1 hr by LC-MS/MS analysis; format: cell-based
[13] = AUC in dog at 10 mg/kg, po; format: ADME, organism-based, Canis lupus familiaris; parameters: dose 10 mg/kg; settings: in vivo
[14] = AUC in cynomolgus monkey at 0.2 mg/kg, iv; format: ADME, organism-based, Macaca fascicularis; parameters: dose 0.2 mg/kg; settings: in vivo
[15] = AUC infinity in mouse at 200 mg/kg, po; format: ADME, organism-based; parameters: route oral, time infinity, dose 200 mg/kg; settings: in vivo
[16] = AUC in rat at 10 mg/kg, po; format: ADME, organism-based; parameters: dose 10 mg/kg; settings: in vivo
[17] = Volume of distribution at steady state in cynomolgus monkey at 0.2 mg/kg, iv; format: ADME, organism-based, Macaca fascicularis; settings: in vivo, read-out: Vdss
5'-nucleotidase [18] = target: T2, 5'-nucleotidase; experiment: Inhibition of CD73 in CD3/CD28/CD2 activated human CD8+ T-cells assessed as increase in T cell proliferation at 4.1 to 1000 nM preincubated for 15 mins followed by AMP addition and measured after 96 hr by flow cytometric analysis; format: tissue-based; settings: CD8-positive T cell, dose nM 4.1-1000, time 15.0 min
E.G7-OVA [19] = experiment: Antitumour activity against mouse E.G7-OVA cells implanted in C57BL/6 mouse assessed as increase in percentage of CD8+ T cells in total CD45+ leukocytes at 150 mg/kg, po BID for 16 days; format: functional, organism-based; settings: time 16.0 day
[20] = Cmax in rat at 10 mg/kg, po; format: ADME, organism-based; parameters: route oral, dose 10 mg/kg; settings: in vivo
5'-nucleotidase [21] = target: T2, 5'-nucleotidase; experiment: Inhibition of CD73 in human CD8+ T-cells assessed as reduction in AMP-induced ADO expression preincubated for 15 mins followed by AMP addition and measured after 1 hr by LC-MS/MS analysis; format: tissue-based, CD8-positive T cell
EMT6 [22] = experiment: Antitumor activity against mouse EMT6 cells implanted in BALB/c mouse assessed as tumour growth inhibition at 15 mg/kg, sc and measured on day 13; format: functional, organism-based; settings: time 13.0 day
E.G7-OVA [23] = experiment: Antitumour activity against mouse E.G7-OVA cells implanted in C57BL/6 mouse assessed as increase in CD8+/Treg ratio at 150 mg/kg, po BID for 16 days; format: functional, organism-based; settings: time 16.0 day
[24] = Clearance in dog at 0.2 mg/kg, iv; format: ADME, organism-based, Canis lupus familiaris; settings: in vivo
[25] = target: T3, 5'-nucleotidase (Mus musculus) (UniProt Q61503); experiment: Inhibition of CD73 in AMP-induced mouse E.G7-OVA cells at 10 to 100 nM incubated for 60 mins by Wachstein-Meisel lead phosphate method; format: cell-based; settings: dose nM 10-100, time 60.0 min
T3 sequence (whole entry): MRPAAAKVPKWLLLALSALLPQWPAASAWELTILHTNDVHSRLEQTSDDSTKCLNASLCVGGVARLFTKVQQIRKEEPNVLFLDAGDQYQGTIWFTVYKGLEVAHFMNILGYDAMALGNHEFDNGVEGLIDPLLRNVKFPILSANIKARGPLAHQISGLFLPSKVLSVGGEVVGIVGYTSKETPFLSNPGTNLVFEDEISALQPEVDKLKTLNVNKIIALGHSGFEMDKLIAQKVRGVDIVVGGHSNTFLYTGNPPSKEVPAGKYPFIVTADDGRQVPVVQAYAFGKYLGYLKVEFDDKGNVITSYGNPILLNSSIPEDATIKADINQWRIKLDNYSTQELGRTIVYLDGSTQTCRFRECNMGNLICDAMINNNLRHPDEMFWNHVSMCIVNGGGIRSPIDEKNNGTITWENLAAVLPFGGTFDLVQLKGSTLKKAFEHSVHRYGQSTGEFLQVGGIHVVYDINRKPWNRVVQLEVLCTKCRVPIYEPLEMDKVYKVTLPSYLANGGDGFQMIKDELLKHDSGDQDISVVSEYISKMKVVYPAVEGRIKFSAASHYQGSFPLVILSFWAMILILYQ

EMT6 [26] = experiment: Antitumor activity against mouse EMT6 cells implanted in BALB/c mouse assessed as decrease in ADO/AMP ratio at 15 mg/kg, sc and measured on day 13 relative to control; format: functional; parameters: scale not given: the % may be the effect or the level left; settings: time 13 day
5'-nucleotidase [27] = target: T2, 5'-nucleotidase; experiment: Inhibition of CD73 in CD3/CD28/CD2 activated human CD8+ T-cells assessed as increase in TNFalpha protein expression at 4.1 to 1000 nM preincubated for 15 mins followed by AMP addition and measured after 96 hr by ELISA; format: tissue-based; settings: CD8-positive T cell, dose nM 4.1-1000, time 15.0 min
[28] = Volume of distribution at steady state in dog at 0.2 mg/kg, iv; format: ADME, organism-based, Canis lupus familiaris; settings: in vivo, read-out: Vdss
5'-nucleotidase [29] = target: T2, 5'-nucleotidase; experiment: Inhibition of CD73 in human NCI-H1568 cells assessed as reduction in AMP-induced ADO expression preincubated for 15 mins followed by AMP addition and measured after 1 hr by LC-MS/MS analysis relative to control; format: cell-based
[30] = Cmax in mouse at 200 mg/kg, po; format: ADME, organism-based; parameters: route oral, dose 200 mg/kg; settings: in vivo
[31] = Terminal half life in rat at 0.2 mg/kg, iv; format: ADME, organism-based; settings: in vivo, read-out: beta t1/2 (converted)
5'-nucleotidase [32] = target: T4, 5'-nucleotidase (Mus musculus, UniProt Q61503); experiment: Inhibition of CD73 in mouse EMT6 cells assessed as reduction in AMP-induced ADO expression preincubated for 15 mins followed by AMP addition and measured after 1 hr by LC-MS/MS analysis; format: cell-based
T4 sequence (Q61503 whole entry): T3 sequence (whole entry)

[33] = AUC in dog at 0.2 mg/kg, iv; format: ADME, organism-based, Canis lupus familiaris; parameters: dose 0.2 mg/kg; settings: in vivo
[34] = target: T3, 5'-nucleotidase (Mus musculus); experiment: Inhibition of CD73 in mouse EMT6 cells assessed as reduction in AMP-induced ADO expression preincubated for 15 mins followed by AMP addition and measured after 1 hr by LC-MS/MS analysis relative to control; format: cell-based
[35] = Terminal half life in dog at 0.2 mg/kg, iv; format: ADME, organism-based, Canis lupus familiaris; settings: in vivo, read-out: beta t1/2 (converted)
[36] = target: T3, 5'-nucleotidase (Mus musculus); experiment: Inhibition of CD73 in AMP-induced mouse E.G7-OVA cells incubated for 60 mins by Wachstein-Meisel lead phosphate method; format: cell-based; settings: dose nM 10-100, time 60.0 min
5'-nucleotidase [37] = target: T2, 5'-nucleotidase; experiment: Inhibition of human C-terminal His6-tagged CD73 expressed in CHO cells preincubated for 15 mins followed by AMP addition and measured after 10 mins by malachite green reagent based assay; format: cell-based
[38] = Cmax in cynomolgus monkey at 10 mg/kg, po; format: ADME, organism-based, Macaca fascicularis; parameters: route oral, dose 10 mg/kg; settings: in vivo

Sequence of Cytochrome P450 2C9 (P11712 whole entry): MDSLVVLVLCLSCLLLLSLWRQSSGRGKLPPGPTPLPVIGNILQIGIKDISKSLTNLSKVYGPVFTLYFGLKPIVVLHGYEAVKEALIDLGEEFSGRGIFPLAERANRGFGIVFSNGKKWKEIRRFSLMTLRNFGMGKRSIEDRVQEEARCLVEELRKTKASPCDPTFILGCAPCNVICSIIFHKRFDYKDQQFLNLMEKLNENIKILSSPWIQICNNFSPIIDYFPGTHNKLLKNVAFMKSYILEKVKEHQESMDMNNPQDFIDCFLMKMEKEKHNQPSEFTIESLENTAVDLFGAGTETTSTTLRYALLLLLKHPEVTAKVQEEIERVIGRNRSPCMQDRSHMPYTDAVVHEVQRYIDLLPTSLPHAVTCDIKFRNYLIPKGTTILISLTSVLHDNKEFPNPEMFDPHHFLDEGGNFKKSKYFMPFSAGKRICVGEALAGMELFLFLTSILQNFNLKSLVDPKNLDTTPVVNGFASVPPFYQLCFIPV

IC50 (Cytochrome P450 2C9): > 20000 nM
half-life [1]: 4.6 h
clearance [2]: 3 mL/min/kg
IC50 (Cytochrome P450 2C8): > 20000 nM
Cmax [3]: 1250 nM
AUC [4]: 2.11 µM·h
half-life [5]: 3.3 h
clearance [6]: 0.833 mL/min/kg
inhibition (5'-nucleotidase [8]): 100%
inhibition (5'-nucleotidase [9]): Active
AUC [10]: 14.2 µM·h
IC50 (Cytochrome P450 3A4): > 20000 nM
Vd [11]: 0.22 L/kg
EC50 (5'-nucleotidase [12]): 0.79 nM
AUC [13]: 1.75 µM·h
AUC [14]: 7.72 µM·h
AUC(0-inf) [15]: 45.1 µM·h
AUC [16]: 1.96 µM·h
Vd [17]: 0.1 L/kg
inhibition (5'-nucleotidase [18]): Active
Cmax [20]: 820 nM
EC50 (5'-nucleotidase [21]): 0.22 nM
clearance [24]: 20.3 mL/min/kg
inhibition [25]: Active
inhibition (5'-nucleotidase [27]): Active
Vd [28]: 0.29 L/kg
inhibition (5'-nucleotidase [29]): 100%
Cmax [30]: 42200 nM
half-life [31]: 8.5 h
EC50 (5'-nucleotidase [32]): 14 nM
AUC [33]: 0.31 µM·h
inhibition [34]: 100%
half-life [35]: 0.82 h
inhibition [36]: Dose-dependent effect
IC50 (5'-nucleotidase [37]): 0.25 nM
Cmax [38]: 1720 nM
SMILES: COC[C@](CO)(OC[C@H]1O[C@@H](n2ncc3c(NC4CCCC4)nc(Cl)nc32)[C@H](O)[C@@H]1O)P(=O)(O)O
Activity (EMT6 [7]): 100%
Activity (E.G7-OVA [19]): Active
Activity (EMT6 [22]): Active
Activity (E.G7-OVA [23]): Active
Activity (EMT6 [26]): 95%
